According to patent publication US20140308313A1 (priority 2006, published 2014):

How the values were obtained:
[1] = system: protein-specific antibodies (TT, DT, H3N2); design: species or system C57/BL6 mice; conditions: mouse, in vivo
[2] = system: H3N2-specific antibodies; assay: α-GC in first, second or both priming doses of H3N2, challenge at week 56; format: in vivo, C57BL/6 mice
Description: FIG. 8 depicts the immunisation schedule used to assess whether α-GC is required to be present in all vaccine doses used at priming. 20 C57BL/6 female mice, aged 6-8 weeks, were divided into 4 groups of 5 mice. Group 1) was immunised with H3N2 in PBS at week 0 and H3N2+α-GC 2 weeks later. Group 2) were immunised with H3N2+α-GC at week 0 and H3N2 in PBS 2 weeks later. Group 3) were immunised with H3N2 in PBS at week 0 and week 2. Group 4) were immunised with H3N2 and α-GC at week 0 and 2 weeks later. 56 weeks after the initial immunisation, mice in all groups were challenged with 3 μg H3N2 in PBS and recall response was assessed at 58 weeks. All immunisations were intramuscular.
20 C57BL/6 female mice, aged 6-8 weeks, were divided into 4 groups of 5 mice. Group 1) was immunised with H3N2 in PBS at week 0 and H3N2+α-GC 2 weeks later. Group 2) were immunised with H3N2+α-GC at week 0 and H3N2 in PBS 2 weeks later. Group 3) were immunised with H3N2 in PBS at week 0 and week 2. Group 4) were immunised with H3N2 and α-GC at week 0 and 2 weeks later. 56 weeks after the initial immunisation, mice in all groups were challenged with 3 μg H3N2 in PBS. All immunisations were intramuscular.

[3] = system: MenB antigens ΔG287nz-953, 936-741 and 961c; design: species or system mice; conditions: mouse, in vivo
[4] = system: MenB; design: species or system mice; conditions: mouse, in vivo
[5] = system: MenB-specific memory B cells; design: species or system mice; conditions: mouse, in vivo
[6] = system: CD4 T cells producing TNFα; format: in vivo, CD1 mice; conditions: 10 days after 2nd immunisation, splenocytes cultured 16 hours
Description: FIG. 14 show a comparison of the CD4 T cell response against recombinant MenB antigens in mice immunised intramuscularly on day 0 and 21 with: a) a combination vaccine containing 3 MenB antigens and α-GC; b) a combination vaccine containing 3 MenB antigens and Alum; or c) with a combination vaccine containing 3 MenB antigens alone. The CD4 T cell response was assessed two weeks after the second immunisation by incubating total splenocytes with the indicated amount of MenB recombinant proteins for 16 hours ([…] of which in the presence of Brefeldin A). The number CD4 T cells producing TNFα was determined by intracellular staining and FACS analysis). […] As a positive control, response of all three groups of mice to polyclonal stimulation was tested.
A second experiment was conducted to assess the ex vivo CD4 T cell response to MenB antigens. Groups of 6 CD1 female mice were immunised twice with the mix of MenB antigens, formulated in PBS, alum or α-GC. 10 days after the 2nd immunisation, 3 mice/group were sacrificed and their spleens were removed. Whole splenocyte suspensions from individual mice were cultured with the MenB antigens for 16 hours, the last 12 of which were in the presence of brefeldin A to allow intracellular accumulation of cytokines. […] Percentages of CD3+CD4+CD69+ cytokine+ cells in the total CD4+ cell population were determined by FACS analysis.

[7] = system: H3N2-specific antibodies; assay: H3N2 antibody response in mice bearing or lacking iNKT cells or CD1d; format: in vivo; conditions: mice lacking CD1d (CD1−/−); data not shown
Description: Mice lacking iNKT cells (Ja18−/−) immunised with H3N2 and α-GC (closed boxes) show no enhancement in serum titer of H3N2-specific antibodies compared to mice lacking iNKT cells immunised with H3N2 alone (open boxes). All immunisations were subcutaneous.

[8] = system: GBS80-IgG; design: species or system mice; conditions: mouse, in vivo

For `CCCCCCCCCCCCCCCCCCCCCCCCCC(=O)N[C@@H](CO[C@H]1OC(CO)[C@H](O)C(O)C1O)[C@H](O)[C@@H](O)CCCCCCCCCCCCCC` (stereo partly drawn) [α-GC, α-galactosylceramide], the “serum titers of protein-specific antibodies compared to proteins alone” value [1] was “one to two logs higher”, the “efficacy by timing of α-GC dose” value ([2]; first versus second vaccine dose) was “Maximal efficacy was observed when α-GC was given in the first vaccine dose” and the “recall response (H3N2 Ig titers) compared to 2 doses of H3N2 alone” value ([2]; two weeks after booster with H3N2 alone on week 56) was “higher recall responses”. For the same compound, the “H3N2-antibody response compared to H3N2 in PBS” value ([2]; α-GC in both, first only or second only immunisation) was “enhance the antibody response even when given only in the first or second immunisation”, the “antibody response (IgG titers) to the three MenB antigens” value [3] was “as effective as alum” and the “bactericidal antibody titers compared to alum” value [4] was “higher bactericidal antibody titers than alum”. For the same compound, the “frequencies of MenB-specific memory B cells in spleen compared to alum” value [5] was “higher frequencies of MenB-specific memory B cells”, the “expansion of CD4 T cells producing TNFα in response to MenB antigens” value [6] was “more effective than alum” and the adjuvant activity [7] was “did not display adjuvant activity”. The “GBS80-IgG response in the mothers relative to alum” value [8] was 8 fold.
